Key:
[1] = system: TRZAWR (Wheat, Winter, cv Riband); test: Postemergence herbicidal evaluation; type: in vivo, Triticum aestivum; settings: postemergence
In short: (§1)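 Rate range approx. 0.0156–0.500 kg/ha. Foliar application at 40 psi to ~2-week seedlings; surfactant 0.5% TWEEN 20 in 50/50 acetone/water. Evaluation 4–5 wk post-treatment by 0–9 visual injury score, means of replicate tests.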

[2] = system: SETVI (Foxtail, Green); test: Preemergence herbicidal evaluation; type: in vivo, Setaria viridis; settings: rated 4-5 weeks after treatment
In short: (§2)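 Visual 0-9 rating vs control (stand, vigor, malformation, size, chlorosis, overall appearance), scored 4-5 wk after spraying. Seeded soil cups were treated preemergence with compound in aqueous acetone, ~0.0156-0.500 kg/ha equivalent.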

[3] = system: CASOB (Sicklepod); test: Preemergence herbicidal evaluation; type: in vivo, Cassia obtusifolia; settings: rated 4-5 weeks after treatment
In short: as §2

[4] = system: AMBEL (Ragweed, Common); test: Postemergence herbicidal evaluation; type: in vivo, Ambrosia artemisifolia; settings: postemergence
In short: as §1

[5] = system: ORYSAT (Rice, Tebonnet); test: Postemergence herbicidal evaluation; type: in vivo, Oryza sativa, (L.) Tebonnet; settings: postemergence
In short: as §1

[6] = system: SETVI (Foxtail, Green); test: Postemergence herbicidal evaluation; type: in vivo, Setaria viridis; settings: postemergence
In short: as §1

[7] = system: ECHCG (Barnyardgrass); test: Postemergence herbicidal evaluation; type: in vivo, Echinochloa crus-galli; settings: postemergence
In short: as §1

[8] = system: MOOVA (Monochoria); test: Preemergence weed control under flooded paddy conditions; type: in vivo, Monochoria vaginalis; settings: rated 3-4 weeks after treatment
In short: (§3)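 Using flooded silt loam (water 1.5 to 3 cm deep), seeds sown in the top 0.5 cm were exposed preemergence to compound pipetted into the flood at about 0.0313 to 0.500 kg/ha. Effects were scored 0-9 by eye three to four weeks later.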

[9] = system: SAGPY (Arrowhead (Pygmaea)); test: as above; type: in vivo, Sagittaria pygmaea; settings: rated 3-4 weeks after treatment
In short: as §3

[10] = system: ABUTH (Velvetleaf); test: Postemergence herbicidal evaluation; type: in vivo, Abutilon theophrasti; settings: postemergence
In short: as §1

[11] = system: GLXMAW (Soybean, Williams); test: Postemergence herbicidal evaluation; type: in vivo, Glycine max, (L.) Merr. cv Williams; settings: postemergence
In short: as §1

[12] = system: ABUTH (Velvetleaf); test: Preemergence herbicidal evaluation; type: in vivo, Abutilon theophrasti; settings: rated 4-5 weeks after treatment
In short: as §2

[13] = rate 0.0313 kg/ha, rating scale 0-9
[14] = rate 0.0625 kg/ha, rating scale 0-9
[15] = rate 0.1250 kg/ha, rating scale 0-9
[16] = rate 0.2500 kg/ha, rating scale 0-9

CSCCN1C(=O)CSC1=Nc1cc(-n2c(=O)cc(C(F)(F)F)n(C)c2=O)c(F)cc1Cl [Compound 157]
herbicidal rating TRZAWR ([1]; rate 0.0156 kg/ha): 2.5 | herbicidal rating TRZAWR ([1]; rate 0.0313 kg/ha): 3.5 | herbicidal rating TRZAWR ([1]; rate 0.0625 kg/ha): 4.0 | Preemergence herbicidal rating SETVI [2, 13]: 0.0 | Preemergence herbicidal rating SETVI [2, 14]: 0.0 | Preemergence herbicidal rating SETVI [2, 15]: 2.0 | Preemergence herbicidal rating SETVI [2, 16]: 1.0 | Preemergence herbicidal rating CASOB [3, 13]: 1.0 | Preemergence herbicidal rating CASOB [3, 14]: 0.0 | Preemergence herbicidal rating CASOB [3, 15]: 1.0 | Preemergence herbicidal rating CASOB [3, 16]: 5.0 | herbicidal rating AMBEL ([4]; rate 0.0156 kg/ha): 2.0 | herbicidal rating AMBEL ([4]; rate 0.0313 kg/ha): 2.0 | herbicidal rating AMBEL ([4]; rate 0.0625 kg/ha): 5.0 | herbicidal rating ORYSAT ([5]; rate 0.0156 kg/ha): 2.0 | herbicidal rating ORYSAT ([5]; rate 0.0313 kg/ha): 2.5 | herbicidal rating ORYSAT ([5]; rate 0.0625 kg/ha): 3.0 | herbicidal rating SETVI ([6]; rate 0.0156 kg/ha): 0.0 | herbicidal rating SETVI ([6]; rate 0.0313 kg/ha): 1.0 | herbicidal rating SETVI ([6]; rate 0.0625 kg/ha): 7.0 | herbicidal rating ECHCG ([7]; rate 0.0156 kg/ha): 0.0 | herbicidal rating ECHCG ([7]; rate 0.0313 kg/ha): 1.0 | herbicidal rating ECHCG ([7]; rate 0.0625 kg/ha): 2.0 | herbicidal effect rating, MOOVA ([8]; 0.2500 kg/ha): 0.0 | herbicidal effect rating, SAGPY ([9]; 0.2500 kg/ha): 0.0 | herbicidal rating ABUTH ([10]; rate 0.0156 kg/ha): 7.0 | herbicidal rating ABUTH ([10]; rate 0.0313 kg/ha): 9.0 | herbicidal rating ABUTH ([10]; rate 0.0625 kg/ha): 9.0 | herbicidal rating GLXMAW ([11]; rate 0.0156 kg/ha): 4.5 | herbicidal rating GLXMAW ([11]; rate 0.0313 kg/ha): 5.0 | herbicidal rating GLXMAW ([11]; rate 0.0625 kg/ha): 7.5 | Preemergence herbicidal rating ABUTH [12, 13]: 0.0 | Preemergence herbicidal rating ABUTH [12, 14]: 0.0 | Preemergence herbicidal rating ABUTH [12, 15]: 4.0 | Preemergence herbicidal rating ABUTH [12, 16]: 6.0

COC(=O)CSCCN1C(=O)CSC1=Nc1cc(-n2c(=O)cc(C(F)(F)F)n(C)c2=O)c(F)cc1Cl [Compound 158, Methyl {{2-{2-{{2-chloro-5-[3,6-dihydro-3-methyl-2,6-dioxo-4-(trifluoromethyl)-1(2H)-pyrimidinyl]-4-fluorophenyl}imino}-4-oxo-3-thiazolidinyl}ethyl}-thio}acetate]
herbicidal rating TRZAWR ([1]; rate 0.0156 kg/ha): 3.5 | herbicidal rating TRZAWR ([1]; rate 0.0313 kg/ha): 4.0 | herbicidal rating TRZAWR ([1]; rate 0.0625 kg/ha): 3.5 | Preemergence herbicidal rating SETVI ([2]; 0.0156 kg/ha): 7.0 | Preemergence herbicidal rating SETVI ([2]; 0.0313 kg/ha): 9.0 | Preemergence herbicidal rating SETVI ([2]; 0.0625 kg/ha): 9.0 | Preemergence herbicidal rating SETVI [2, 15]: 9.0 | Preemergence herbicidal rating SETVI [2, 16]: 9.0 | Preemergence herbicidal rating CASOB ([3]; 0.0156 kg/ha): 1.0 | Preemergence herbicidal rating CASOB ([3]; 0.0313 kg/ha): 3.0 | Preemergence herbicidal rating CASOB ([3]; 0.0625 kg/ha): 4.0 | Preemergence herbicidal rating CASOB [3, 15]: 9.0 | Preemergence herbicidal rating CASOB [3, 16]: 5.0 | herbicidal rating AMBEL ([4]; rate 0.0156 kg/ha): 6.0 | herbicidal rating AMBEL ([4]; rate 0.0313 kg/ha): 7.0 | herbicidal rating AMBEL ([4]; rate 0.0625 kg/ha): 9.0 | herbicidal rating ORYSAT ([5]; rate 0.0156 kg/ha): 2.0 | herbicidal rating ORYSAT ([5]; rate 0.0313 kg/ha): 2.5 | herbicidal rating ORYSAT ([5]; rate 0.0625 kg/ha): 3.5 | herbicidal rating SETVI ([6]; rate 0.0156 kg/ha): 2.0 | herbicidal rating SETVI ([6]; rate 0.0313 kg/ha): 3.0 | herbicidal rating SETVI ([6]; rate 0.0625 kg/ha): 9.0 | herbicidal rating ECHCG ([7]; rate 0.0156 kg/ha): 2.0 | herbicidal rating ECHCG ([7]; rate 0.0313 kg/ha): 2.0 | herbicidal rating ECHCG ([7]; rate 0.0625 kg/ha): 3.0 | herbicidal effect rating, MOOVA ([8]; 0.0313 kg/ha): 9.0 | herbicidal effect rating, MOOVA ([8]; 0.0625 kg/ha): 9.0 | herbicidal effect rating, MOOVA ([8]; 0.1250 kg/ha): 9.0 | herbicidal effect rating, MOOVA ([8]; 0.2500 kg/ha): 9.0 | herbicidal effect rating, SAGPY ([9]; 0.0313 kg/ha): 4.0 | herbicidal effect rating, SAGPY ([9]; 0.0625 kg/ha): 5.0 | herbicidal effect rating, SAGPY ([9]; 0.1250 kg/ha): 6.0 | herbicidal effect rating, SAGPY ([9]; 0.2500 kg/ha): 9.0 | herbicidal rating ABUTH ([10]; rate 0.0156 kg/ha): 9.0 | herbicidal rating ABUTH ([10]; rate 0.0313 kg/ha): 9.0 | herbicidal rating ABUTH ([10]; rate 0.0625 kg/ha): 9.0 | herbicidal rating GLXMAW ([11]; rate 0.0156 kg/ha): 5.0 | herbicidal rating GLXMAW ([11]; rate 0.0313 kg/ha): 5.0 | herbicidal rating GLXMAW ([11]; rate 0.0625 kg/ha): 7.0 | Preemergence herbicidal rating ABUTH ([12]; 0.0156 kg/ha): 9.0 | Preemergence herbicidal rating ABUTH ([12]; 0.0313 kg/ha): 9.0 | Preemergence herbicidal rating ABUTH ([12]; 0.0625 kg/ha): 9.0 | Preemergence herbicidal rating ABUTH [12, 15]: 9.0 | Preemergence herbicidal rating ABUTH [12, 16]: 9.0

C=CCN1C(=O)C(CC(=O)NO)SC1=Nc1cc(-n2c(=O)cc(C(F)(F)F)n(C)c2=O)c(F)cc1Cl (stereo not drawn) [Compound 161, 3-Allyl-2-{{2-chloro-5-[3,6-dihydro-3-methyl-2,6-dioxo-4-(trifluoromethyl)-1(2H)-pyrimidinyl]-4-fluorophenyl}imino}-4-oxo-5-thiazolidineacetohydroxamic acid]
herbicidal rating TRZAWR ([1]; rate 0.0156 kg/ha): 2.5 | herbicidal rating TRZAWR ([1]; rate 0.0313 kg/ha): 3.5 | herbicidal rating TRZAWR ([1]; rate 0.0625 kg/ha): 4.0 | herbicidal rating TRZAWR ([1]; rate 0.1250 kg/ha): 4.5 | Preemergence herbicidal rating SETVI ([2]; 0.0156 kg/ha): 0.0 | Preemergence herbicidal rating SETVI ([2]; 0.0313 kg/ha): 0.0 | Preemergence herbicidal rating SETVI ([2]; 0.0625 kg/ha): 7.0 | Preemergence herbicidal rating SETVI ([2]; 0.1250 kg/ha): 9.0 | Preemergence herbicidal rating SETVI ([2]; 0.2500 kg/ha): 9.0 | Preemergence herbicidal rating SETVI ([2]; 0.5000 kg/ha): 9.0 | Preemergence herbicidal rating CASOB ([3]; 0.0156 kg/ha): 0.0 | Preemergence herbicidal rating CASOB ([3]; 0.0313 kg/ha): 0.0 | Preemergence herbicidal rating CASOB ([3]; 0.0625 kg/ha): 1.0 | Preemergence herbicidal rating CASOB ([3]; 0.1250 kg/ha): 9.0 | Preemergence herbicidal rating CASOB ([3]; 0.2500 kg/ha): 9.0 | Preemergence herbicidal rating CASOB ([3]; 0.5000 kg/ha): 9.0 | herbicidal rating AMBEL ([4]; rate 0.0156 kg/ha): 1.0 | herbicidal rating AMBEL ([4]; rate 0.0313 kg/ha): 4.0 | herbicidal rating AMBEL ([4]; rate 0.0625 kg/ha): 9.0 | herbicidal rating AMBEL ([4]; rate 0.1250 kg/ha): 9.0 | herbicidal rating ORYSAT ([5]; rate 0.0156 kg/ha): 2.5 | herbicidal rating ORYSAT ([5]; rate 0.0313 kg/ha): 3.0 | herbicidal rating ORYSAT ([5]; rate 0.0625 kg/ha): 3.5 | herbicidal rating ORYSAT ([5]; rate 0.1250 kg/ha): 3.5 | herbicidal rating SETVI ([6]; rate 0.0156 kg/ha): 0.0 | herbicidal rating SETVI ([6]; rate 0.0313 kg/ha): 1.0 | herbicidal rating SETVI ([6]; rate 0.0625 kg/ha): 7.0 | herbicidal rating SETVI ([6]; rate 0.1250 kg/ha): 7.0 | herbicidal rating ECHCG ([7]; rate 0.0156 kg/ha): 0.0 | herbicidal rating ECHCG ([7]; rate 0.0313 kg/ha): 0.0 | herbicidal rating ECHCG ([7]; rate 0.0625 kg/ha): 4.0 | herbicidal rating ECHCG ([7]; rate 0.1250 kg/ha): 4.0 | herbicidal effect rating, MOOVA ([8]; 0.0313 kg/ha): 7.0 | herbicidal effect rating, MOOVA ([8]; 0.0625 kg/ha): 7.0 | herbicidal effect rating, MOOVA ([8]; 0.1250 kg/ha): 7.0 | herbicidal effect rating, MOOVA ([8]; 0.2500 kg/ha): 9.0 | herbicidal effect rating, SAGPY ([9]; 0.0313 kg/ha): 2.0 | herbicidal effect rating, SAGPY ([9]; 0.1250 kg/ha): 6.0 | herbicidal effect rating, SAGPY ([9]; 0.2500 kg/ha): 9.0 | herbicidal rating ABUTH ([10]; rate 0.0156 kg/ha): 0.0 | herbicidal rating ABUTH ([10]; rate 0.0313 kg/ha): 5.0 | herbicidal rating ABUTH ([10]; rate 0.0625 kg/ha): 7.0 | herbicidal rating ABUTH ([10]; rate 0.1250 kg/ha): 9.0 | herbicidal rating GLXMAW ([11]; rate 0.0156 kg/ha): 5.0 | herbicidal rating GLXMAW ([11]; rate 0.0313 kg/ha): 6.5 | herbicidal rating GLXMAW ([11]; rate 0.0625 kg/ha): 7.0 | herbicidal rating GLXMAW ([11]; rate 0.1250 kg/ha): 8.5 | Preemergence herbicidal rating ABUTH ([12]; 0.0156 kg/ha): 0.0 | Preemergence herbicidal rating ABUTH ([12]; 0.0313 kg/ha): 1.0 | Preemergence herbicidal rating ABUTH ([12]; 0.0625 kg/ha): 2.0 | Preemergence herbicidal rating ABUTH ([12]; 0.1250 kg/ha): 9.0 | Preemergence herbicidal rating ABUTH ([12]; 0.2500 kg/ha): 9.0 | Preemergence herbicidal rating ABUTH ([12]; 0.5000 kg/ha): 9.0

From patent publication US20020137929A1, “1 - (3-heterocyclylphenyl) isothiourea, -isourea, -guanidine and -amidine herbicidal agents” (Intellectual Property Department, BASF Aktiengesellschaft, priority 1998, published 2002)
